Read-outs that look alike come from different tables or passages of the source.
Key:
[1] = Blood clearance of 177Lu-DOTA-ALBs in FVB mice; settings: mouse, in vivo
Experimental: Immunocompetent female mice (FVB) at the age of 5 to 6 weeks were purchased from Charles River Laboratories (Sulzfeld, Germany) and acclimatized upon arrival for at least 7 days. FVB mice were intravenously injected with ^177Lu-DOTA-ALBs (25 MBq, 1 nmol/mouse, 100 µL PBS containing 0.05% bovine serum albumin (BSA) and 25 μg L-ascorbic acid, n = 3−6 mice per radioligand) followed by the first blood sampling of 3 × 1 μL from a different tail vein 3 min after injection (set as t0). Additional blood samples were taken at defined time points after injection. All collected blood samples from individual mice were measured at the same time using a γ-counter (PerkinElmer Wallac Wizard 1480, Waltham, MA, USA) to obtain decay-corrected values. The counts were set in relation to the initial counts at t0 (set as 100%) to prepare clearance curves by plotting the percentage of retained activity in the blood (% IA) against the time. The blood clearance curves were investigated until the counts of the blood samples were below the linear detection range (Supplementary Materials Section S6). An analysis was performed using GraphPad Prism software (version 8.0) by fitting a non-linear regression curve (exponential, two-phase) to the data points to calculate the serum half-lives. The areas under the curves (AUC0–7days) were calculated by integrating the blood excretion curves over 7 days and setting into relation with the AUC0–7days value obtained for [^177Lu]Lu-DOTA-ALB-1 (set as 1.0) to obtain relative AUC0–7days values. […]
S6. Blood Clearance of 177Lu-DOTA-ALBs
Purpose: The 177Lu-labeled DOTA-ALBs were investigated in vivo in order to assess their blood clearance profile.
Methods: Female, immunocompetent FVB mice were obtained from Charles River Laboratories (Sulzfeld, Germany), at the age of 5–6 weeks and acclimatized for at least 7 days before the start of the in vivo studies. Blood clearance of 177Lu-labeled DOTA-ALBs were determined in n=3–6 mice per radioligand. The radiolabeled DOTA-ALBs ( 25 MBq/nmol) were formulated in PBS pH 7.4 containing 0.05% bovine serum albumin (BSA) and L-ascorbic acid (25 µg per 25 MBq) to prevent radiolytic degradation. Mice were intravenously injected with the respective 177Lu-labeled DOTA-ALB (25 MBq, 1 nmol, 100 µL per mouse). The blood clearance was determined by taking blood samples (3 × 1 µL) from the tail vein using 1 µL-capillaries at 3 min after injection (set as t0) as well as at various timepoints over the following 48 h. In the case of [177Lu]Lu-DOTA-ALB-1 and [177Lu]Lu-DOTA-ALB-3, blood sampling was additionally performed at later time points up to 3 and 7 days, respectively. The collected blood samples were measured in a γ-coun-ter (PerkinElmer, Wallac Wizard 1480, Waltham, MA, USA).

[2] = n-octanol/PBS pH 7.4; cited from earlier work
[3] = parameters: method as in PMID 33063250; settings: n-octanol/PBS pH 7.4; cited from earlier work
[4] = tested on: KB tumor-bearing athymic nude mice; parameters: method as in earlier work; settings: cited from earlier work
[5] = molecular target: T1, folate receptor (FR) (Homo sapiens, UniProt P15328); parameters: method as in PMID 34251183; settings: IGROV-1 cells; read-out: KD Value (95% CI); cited from earlier work
T1 construct: endogenous in cells; host or cells: IGROV-1 (human ovarian carcinoma cell line), intact cells on ice
T1 sequence (P15328 25-257): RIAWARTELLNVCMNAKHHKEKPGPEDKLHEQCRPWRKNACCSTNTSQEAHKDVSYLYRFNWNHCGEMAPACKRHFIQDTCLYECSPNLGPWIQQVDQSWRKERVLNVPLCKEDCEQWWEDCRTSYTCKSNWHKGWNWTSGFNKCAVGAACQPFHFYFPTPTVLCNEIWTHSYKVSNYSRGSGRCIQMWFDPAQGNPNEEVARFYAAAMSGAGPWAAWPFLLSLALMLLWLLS

## O=C(O)CN1CCN(CC(=O)O)CCN(CC(=O)NCCC(=O)N[C@@H](CCCCNC(=O)CCCc2ccc(I)cc2)C(=O)O)CCN(CC(=O)O)CC1.[177Lu] [[^177Lu]Lu-DOTA-ALB-1]
[1]
  Rel. Blood AUC0–7days: 1.0
[1]; iv
  % Phase a: 33%
  % Phase b: 67%
  Blood AUC0–7days: 1500 % IA× h
  Half-Life Phase a: 22 s
  Half-Life Phase b: 16 h
[2]
  logD value: −3.15 ± 0.04

## CN1c2c(nc(N)[nH]c2=O)NCC1CNc1ccc(C(=O)NC(CCC(=O)NC(CCCCNC(=O)CN2CCN(CC(=O)[O-])CCN(CC(=O)[O-])CCN(CC(=O)[O-])CC2)C(=O)NC(CCCCNC(=O)CCCc2ccc(I)cc2)C(=O)O)C(=O)O)cc1.[177Lu+3] (stereo not drawn) [[^177Lu]Lu-6S-RedFol-1]
[3]
  logD Values: −3.7 ± 0.1 ^4
[4]; 1 h p.i.
  Blood, accumulated activity: 19 ± 2 % IA/g
  Bone, accumulated activity: 2.0 ± 0.2 % IA/g
  Intestines, accumulated activity: 1.8 ± 0.4 % IA/g
  KB tumor, accumulated activity: 14 ± 3 % IA/g
  Kidneys, accumulated activity: 18 ± 2 % IA/g
  Liver, accumulated activity: 2.6 ± 0.1 % IA/g
  Lung, accumulated activity: 8.5 ± 0.6 % IA/g
  Muscle, accumulated activity: 1.6 ± 0.2 % IA/g
  Salivary glands, accumulated activity: 4.0 ± 0.2 % IA/g
  Spleen, accumulated activity: 2.0 ± 0.2 % IA/g
  Stomach, accumulated activity: 1.5 ± 0.3 % IA/g
  Tumor-to-blood ratio: 0.73 ± 0.12
  Tumor-to-kidney ratio: 0.75 ± 0.09
  Tumor-to-liver ratio: 5.3 ± 1.0
[4]; 4 h p.i.
  Blood, accumulated activity: 15 ± 2 % IA/g
  Bone, accumulated activity: 1.7 ± 0.2 % IA/g
  Intestines, accumulated activity: 1.9 ± 0.1 % IA/g
  KB tumor, accumulated activity: 26 ± 1 % IA/g
  Kidneys, accumulated activity: 33 ± 2 % IA/g
  Liver, accumulated activity: 2.3 ± 0.2 % IA/g
  Lung, accumulated activity: 6.7 ± 0.6 % IA/g
  Muscle, accumulated activity: 1.3 ± 0.1 % IA/g
  Salivary glands, accumulated activity: 3.5 ± 0.4 % IA/g
  Spleen, accumulated activity: 1.9 ± 0.3 % IA/g
  Stomach, accumulated activity: 1.2 ± 0.2 % IA/g
  Tumor-to-blood ratio: 1.7 ± 0.2
  Tumor-to-kidney ratio: 0.79 ± 0.07
[4]; 24 h p.i.
  Blood, accumulated activity: 3.8 ± 0.9 % IA/g
  Bone, accumulated activity: 0.53 ± 0.08 % IA/g
  Intestines, accumulated activity: 0.49 ± 0.04 % IA/g
  KB tumor, accumulated activity: 46 ± 3 % IA/g
  Kidneys, accumulated activity: 69 ± 7 % IA/g
  Liver, accumulated activity: 0.81 ± 0.22 % IA/g
  Lung, accumulated activity: 2.2 ± 0.4 % IA/g
  Muscle, accumulated activity: 0.47 ± 0.15 % IA/g
  Salivary glands, accumulated activity: 1.4 ± 0.2 % IA/g
  Spleen, accumulated activity: 1.1 ± 0.2 % IA/g
  Stomach, accumulated activity: 0.51 ± 0.14 % IA/g
  Tumor-to-blood ratio: 13 ± 3
  Tumor-to-kidney ratio: 0.67 ± 0.08
  Tumor-to-liver ratio: 59 ± 13
[5]
  Kd: 1.7 nM
